Assay results from patent US20110268789A1, “USE OF PITUITARY ADENYLATE CYCLASE-ACTIVATING POLYPEPTIDE (PACAP) AND PACAP ANALOGS AS ADJUNCTIVE TREATMENTS WITH ANTICANCER AGENTS” (priority 2008, published 2011).
Square brackets hold non-standard residues; d marks the D form. Ends that are not written are not given here.

Assays:
[1] = rat, in vivo, iv; cited from earlier work
[2] = system: Jurkat human T-lymphocyte leukemia cells; experiment: Etoposide-induced apoptotic cell death of leukemia cells; type: cell-based; conditions: Jurkat cells
Experimental: The Jurkat human T-lymphocyte leukemia cells were cultured in RPMI 1640 medium supplemented with 10% non-inactivated fetal bovine serum. The effects of PACAP27 and PACAP38 on apoptotic cell death was assessed by the quantitative determination of cytoplasmic histone-associated DNA-fragmentation (mono- and oligonucleosomes) after exposure to etoposide for 48 hours. Each value represents the mean plus/minus the standard deviation of three determinations. **p<0.01 and *p<0.05 compared to the etoposide-treated (control) cells.

[3] = system: PC-12 rat pheochromocytoma cells; experiment: Cisplatin-induced apoptotic cell death of pheochromocytoma cells; type: cell-based; conditions: PC-12 cells
Experimental: The PC-12 rat pheochromocytoma cells were cultured in F-12K medium supplemented with 15% horse serum and 2.5% fetal bovine serum. The dose-dependent inhibitory effects of PACAP38 and the PACAP38 analogs on apoptotic cell death were assessed by the quantitative determination of cytoplasmic histone-associated DNA-fragmentation (mono- and oligonucleosomes) after exposure to cisplatin for 24 hours. Each value represents the mean plus/minus the standard error of four determinations. **p<0.01 and *p<0.05 compared to the cisplatin-treated (control) cells.

L-132 human lung cells = experiment: Bleomycin-induced apoptotic cell death of human pulmonary epithelial cells; type: cell-based; conditions: L-132 cells, peptide added to the medium, FIG. 12
Experimental: The L-132 human lung cells were cultured in Eagle's Minimum Essential Medium supplemented with 10% fetal bovine serum. […] Each value represents the mean plus/minus the standard deviation of four determinations in three replicate experiments. **p<0.01 and *p<0.05 compared to the bleomycin-treated (control) cells.
At the highest dose tested (10^−6 M), all three peptides reduced the apoptotic cell death of these epithelial cells by more than 60%. […] Therefore, pre- and/or post-treatment of subjects undergoing bleomycin-based cancer chemotherapy with therapeutic doses of PACAP38 and/or PACAP analogs should result in a higher maximal tolerable dose of bleomycin, and an increased frequency of partial clinical responses and/or an increased number of complete remissions.

HK-2 human kidney cells [4] = experiment: Doxorubicin-induced apoptotic cell death of human renal proximal tubule epithelial cells; type: cell-based; conditions: HK-2 cells, peptide added to the medium, FIG. 11
Experimental: The HK-2 human kidney cells were cultured in Keratinocyte-Serum Free Medium supplemented with recombinant epidermal growth factor and bovine pituitary extract. […] Each value represents the mean plus/minus the standard deviation of four determinations in three replicate experiments. **p<0.01 and *p<0.05 compared to the doxorubicin-treated (control) cells.
At the highest dose tested (10^−6 M), all three peptides reduced the apoptotic cell death of these epithelial cells by more than 60%.

[5] = system: light-chain immunoglobulin-secreting human myeloma cells; experiment: Doxorubicin-induced apoptotic cell death of myeloma cells; type: cell-based
Experimental: The light-chain immunoglobulin-secreting human myeloma cells were cultured in RPMI 1640 medium supplemented with 10% non-inactivated fetal bovine serum and 0.05 mM 2-mercaptoethanol. The effects of PACAP38, and [Ala^16,17,D-Lys^38]PACAP38 on apoptotic cell death was assessed by the quantitative determination of cytoplasmic histone-associated DNA-fragmentation (mono- and oligonucleosomes) after exposure to doxorubicin for 48 hours. Each value represents the mean plus/minus the standard deviation of three determinations. **p<0.01 and *p<0.05 compared to the doxorubicin-treated (control) cells.
At the lowest dose tested (10^−8 M), both peptides reduced the doxorubicin-induced apoptotic cell death of these malignant plasma cells.

Male C57BL/6 mice = experiment: Cisplatin-induced nephrotoxicity in mice; type: in vivo, mouse; conditions: cisplatin 20 mg/kg i.p., FIG. 10
Experimental: (§1) Male C57BL/6 mice were given a single intraperitoneal injection of 20 mg/kg of cisplatin. Twenty nanomoles of PACAP38 were given intraperitoneally 1 hour before the injection of cisplatin and additional doses were given at 24 and 48 hours after the initial dose. The control group of mice was injected intraperitoneally with the same volume of saline as for the injections of cisplatin and PACAP38 on the same schedule. The mice were euthanized 24 hours after the final injection of PACAP38. Each value represents the mean plus/minus the standard error of four determinations. ***p<0.001 and **p<0.01 compared to the group treated only with cisplatin.
as §1, with “PACAP38. TNF-α was extracted from one kidney of each mouse and quantified with an enzyme-linked immunosorbent assay.” for “PACAP38.”
Male C57BL/6 mice were given a single intraperitoneal injection of 20 mg/kg of cisplatin. Twenty nanomoles of PACAP38 were given intraperitoneally 1 hour before the injection of cisplatin and additional doses were given at 24 and 48 hours after the initial dose. The control group of mice were injected intraperitoneally with the same volume of saline as for the injections of cisplatin and PACAP38 on the same schedule. The mice were euthanized 24 hours after the final injection of PACAP38, and the kidneys were removed and fixed in 10% formalin. The fixed sections were stained with hematoxylin and eosin. The sections of the kidneys from control mice show intact renal tubular epithelial cells and well-preserved brush border membranes. The kidneys from mice treated with cisplatin had extensive tubular damage, tubular dilations, intratubular debris, and intratubular casts. […] Tubular damage was more pronounced in the outer cortex in the cisplatin treated mice. The photomicrographs on the left side were made at a lower magnification (×160) than the photomicrographs on the right side (×320). The results described in FIGS. 5, 6, 7, and 8 were from the same experiment.
as §1, with “six” for “four”
as §1, with “The cytoprotective effect of PACAP38 against cisplatin-induced nephrotoxicity was also seen in a common in vivo model. Male” for “Male”, “PACAP38.” for “PACAP38. Each value represents the mean plus/minus the standard error of four determinations. ***p<0.001 and **p<0.01 compared to the group treated only with cisplatin.”

[6] = system: MCF-7 human breast cancer cells; experiment: Doxorubicin-induced apoptotic cell death of breast cancer cells; type: cell-based; conditions: MCF-7 cells
Experimental: The MCF-7 human breast cancer cells were cultured in Eagle's Minimum Essential Medium supplemented with 10% non-inactivated fetal bovine serum and 0.05 mM 2-mercaptoethanol. The effects of PACAP38 and N-acetyl[Ala^16,17,D-Lys^38]PACAP38 on apoptotic cell death were assessed by the quantitative determination of cytoplasmic histone-associated DNA-fragmentation (mono- and oligonucleosomes) after exposure to doxorubicin for 48 hours. Each value represents the mean plus/minus the standard deviation of three determinations. **p<0.01 compared to the doxorubicin-treated (control) cells.
At the highest dose tested (10^−6 M), both peptides reduced the apoptotic cell death of these breast cancer cells by more than 50%.

[7] = system: light-chain immunoglobulin-secreting human myeloma cells; experiment: Carmustine-induced apoptotic cell death of myeloma cells; type: cell-based
Experimental: The light-chain immunoglobulin-secreting human myeloma cells were cultured in RPMI 1640 medium supplemented with 10% non-inactivated fetal bovine serum and 0.05 mM 2-mercaptoethanol. The effects of PACAP38, and [Ala^22]PACAP38 on apoptotic cell death was assessed by the quantitative determination of cytoplasmic histone-associated DNA-fragmentation (mono- and oligonucleosomes) after exposure to carmustine for 48 hours. Each value represents the mean plus/minus the standard deviation of three determinations. **p<0.01 and *p<0.05 compared to the carmustine-treated (control) cells.

[8] = system: NCI-H838 human non-small cell lung cancer cells; conditions: nude mice; cited from earlier work
[9] = system: MCF-7 human breast cancer cells; conditions: nude mice, MCF-7 cells; cited from earlier work
[10] = system: PC-3 human prostate cancer cells; conditions: nude mice, PC-3 cells; cited from earlier work
HK-2 human kidney cells [11] = experiment: Cisplatin-induced apoptotic cell death of human renal proximal tubule epithelial cells (histone-associated DNA fragmentation); type: cell-based; conditions: HK-2 cells, comparable concentrations, FIG. 4
Experimental: The HK-2 human kidney cells were cultured in Keratinocyte-Serum Free Medium supplemented with recombinant epidermal growth factor and bovine pituitary extract. The dose-dependent inhibitory effect of PACAP38 on apoptotic cell death was assessed by the quantitative determination of cytoplasmic histone-associated DNA-fragmentation (mono- and oligonucleosomes) after exposure to cisplatin for 24 hours. Each value represents the mean plus/minus the standard error of four determinations in three replicate experiments. **p<0.01 compared to the cisplatin-treated (control) cells.
The HK-2 human kidney cells were cultured in Keratinocyte-Serum Free Medium supplemented with recombinant epidermal growth factor and bovine pituitary extract. The dose-dependent inhibitory effect of PACAP38 on apoptotic cell death was assessed by the quantitative determination of cytoplasmic histone-associated DNA-fragmentation (mono- and oligonucleosomes) after exposure to cisplatin for 24 hours. Each value represents the mean plus/minus the standard deviation of four determinations in three different experiments. **p<0.01 and *p<0.05 compared to the cisplatin-treated (control) cells.

[12] = system: rat hippocampal neuron/glia co-cultures; conditions: cited from earlier work
[13] = normal human volunteers and a patient with multiple myeloma; cited from earlier work

[^125I]-PACAP38
half-life in the bloodstream [1]: 5 to 6 min

PACAP27 (HSDGIFTDSYSRYRKQMAVKKYLAAVL-NH2)
reduction in etoposide-induced apoptotic cell death ([2]; etoposide 48 hours, FIG. 15): small reduction | significance of the reduction of etoposide-induced apoptotic cell death ([2]; highest dose tested 10^−6 M): did not have a significant effect

[Lys^34]PACAP38 (HSDGIFTDSYSRYRKQMAVKKYLAAVLGKRYKQKVKNK; ends and bridges not checked)
reduction in cisplatin-induced apoptotic cell death ([3]; cisplatin 24 hours, FIG. 13): dose-dependent reduction | reduction of cisplatin-induced apoptotic cell death ([3]; highest dose tested (10^−6 M)): significantly reduced | reduction in bleomycin-induced apoptotic cell death (L-132 human lung cells): significant dose-dependent reduction | reduction in doxorubicin-induced apoptotic cell death (HK-2 human kidney cells [4]): significant dose-dependent reduction

[Ala^16,Ala^17,D-Lys^38]PACAP38 (HSDGIFTDSYSRYRKAAAVKKYLAAVLGKRYKQRVKN[dK]; ends and bridges not checked) [[Ala^16,17,D-Lys^38]PACAP38]
effect on doxorubicin-induced apoptotic cell death (dose-response) ([5]; doxorubicin 48 hours, FIG. 16): biphasic dose-response effect | effect on doxorubicin-induced apoptotic cell death ([5]; highest dose tested (10^−6 M)): small, but not significant, enhancement | effect on doxorubicin-induced apoptotic cell death ([5]; lowest dose tested (10^−8 M)): reduced

[D-Ser^2,Lys^38-palmitoyl]PACAP38
relative potency as cytoprotectants against cisplatin-induced impairment of kidney function (serum creatinine) (Male C57BL/6 mice): less potent

N-acetyl[Ala^16,17,D-Lys^38]PACAP38
relative potency in reducing doxorubicin-induced apoptotic cell death [6]: slightly more potent than PACAP38 | reduction in doxorubicin-induced apoptotic cell death ([6]; doxorubicin 48 hours, FIG. 14): dose-dependent reduction

[Ala^22]PACAP38 (HSDGIFTDSYSRYRKQMAVKKALAAVLGKRYKQRVKNK; ends and bridges not checked)
effect on carmustine-induced apoptotic cell death ([7]; carmustine 48 hours, FIG. 17): enhancement | effect on carmustine-induced apoptotic cell death ([7]; highest dose tested (10^−6 M)): significantly enhanced

PACAP(6-38) (FTDSYSRYRKQMAVKKYLAAVLGKRYKQRVKNK; ends and bridges not checked; UniProt P18509 137-169, looked up, fragment) [a PACAP/VIP receptor antagonist]
growth of xenografts [8]: inhibited the growth | growth of xenografts [9]: inhibited the growth | growth of xenografts [10]: inhibited the growth

[Aib^2]PACAP38
relative effectiveness as protectants against cisplatin-induced apoptotic cell death (HK-2 human kidney cells [11]): similarly effective

pituitary adenylate cyclase-activating polypeptide [PACAP]
peak of bimodal dose-response curve for prevention of gp120-induced neuronal death (lower peak) [12]: 10^−13 M | peak of bimodal dose-response curve for prevention of gp120-induced neuronal death (upper peak) [12]: 10^−10 M | untoward effect reported [13]: transient flushing
